Measured values published in PMC10761119, “Phosphorylation-state dependent intraneuronal sorting of Aβ differentially impairs autophagy and the endo-lysosomal system” (Autophagy, 2023).

Experiments:
primary cortical neurons [1] = assay: Immunocytochemistry colocalization of internalized Aβ with vesicular markers (Mander's overlap coefficient); type: cell-based, mouse; details: Aβ 500 nM, 4 h, mean ± S.D., n = 6, N = 3; for Mander's overlap coefficient, R, with EEA1-positive vesicles: Aβ stained with 82E1
primary cortical neurons [2] = assay: Lysosome enrichment, immunoisolation of LAMP2- or LC3-positive vesicles and Aβ immunoprecipitation with western immunoblotting; type: cell-based, mouse; details: Aβ 500 nM, 4 h; for Intraneuronal accumulation of Aβ peptides by immunoprecipitation of total Aβ (rank order): IP from PNS with 4G8; for Aβ levels in the lysosomal/late endosomal enriched fraction (16,000 g pellet): immunoblot, two independent experiments; for Aβ in LAMP2-immunoisolated lysosomes: compared to p-Ser8Aβ
Experimental: Cells after respective washing steps were collected by scraping and homogenized in isotonic buffer (10 mM Tris-HCl, pH 7.4, 1 mM MgCl2, 0.1 mM EGTA, 0.25 M sucrose) containing protease and phosphatase inhibitors, by repeated suspension through a 23 G × 1” needle. Cell homogenate was centrifuged at 2,000 g for 5 min. Pellet (nuclear material) was discarded. The post-nuclear supernatant was centrifuged at 16,100 g for 15 min. Pellet comprised of lysosome enriched material and the supernatant was used as the crude lysosome depleted material. Pellet was resuspended in STEN-lysis buffer and the lysosome enriched fraction was the supernatant collected after centrifugation at 16,100 g for 15 min. Supernatant was further centrifuged at 16,100 g for 60 min. The resultant pellet contained lysosome depleted material and supernatant was crude cytosolic material. The pellet was re-homogenized in STEN-lysis buffer and the supernatant was the lysosome depleted fraction collected post-centrifugation at 16,100 g for 15 min.
Cells after respective washing steps were collected by scraping and homogenized in either isotonic buffer or hypotonic D buffer containing protease and phosphatase inhibitors by repeated suspension through a 23 G × 1” needle. Cell homogenate was centrifuged at 2,000 g for 5 min and the nuclear material (pellet) was discarded. The post-nuclear supernatant was then used for IP experiments. Sepharose G beads (ThermoFisher Scientific, 101242) were incubated with PNS material at RT for 1 h, beads were further pelleted down and boiled in 1% SDS in 50 mM Tris-HCl, pH 7.6 along with sample buffer, used as bead control. Supernatant exposed to beads only were devoid of nonspecific binding substrates and was used further as loading control. New set of beads were precoated with respective primary antibodies for 1 h and then incubated with the PNS solutions overnight at 4°C. Beads were pelleted down and boiled with 1% SDS in 50 mM Tris-HCl along with sample buffer as the IP eluate.
For different cellular fractions prepared as described earlier, the protein content was estimated using the standard Pierce™ BCA protein assay kit (ThermoFisher Scientific, 23225). For direct comparison between the samples, equal amount of protein was loaded. Samples were dissolved in Laemmli buffer and were boiled at 95°C for 5 min. They were loaded on a precast 4–12% NuPage® Bis-Tris gels (Life technologies, NP033–5/6, WG140–2/3). Gels and prestained protein molecular weight markers were purchased from Life technologies. The separated proteins were electro-transferred onto a 0.2-μm nitrocellulose (NT) membrane (Amersham, 1060001) for 1 h 45 min. After blotting, the NT membranes were boiled in PBS for 10 min. Ponceau staining was done to monitor protein loading of samples. The blots were then incubated in 5% skim milk in TBS-T (TBS [50 mM Tris-HCl, pH 7.5, 150 mM NaCl] containing 0.1% Tween 20 [Sigma Aldrich, P1379]) for 1 h at RT. Blots were incubated overnight at 4°C in the primary antibody solution (respective dilutions in TBS-T, Table 1). Blots were washed and incubated with appropriate secondary antibodies conjugated either with HRP or fluorescent dyes for 1 h. Blots were developed either by enhanced chemiluminescence (ECL) or fluorescence imaging. For ECL imaging, blots were incubated with equivalent mixtures of ECL solution A (0.1 M Tris, 0.4 mM coumaric acid, 2.5 mM luminol, pH 8.5) and B (0.1 M Tris, 0.018% H2O2) mixed prior to application on blots. Signals were detected with an ECL imager (Bio-Rad, Germany). For fluorescence detection, blots were imaged on a Li-COR imaging station (Li-COR Biosciences, Germany). Blots were presented as is or with minimal linear contrast enhancement (Figure 5B–D; S1; S3E; S5E, S8E). Quantification of band signals was done using ImageJ – Gel processing module or Image Studio processing software (LiCOR Biosciences, Germany). […]

SH-SY5Y cells = assay: Lysosomal acidification assay using LysoSensor-dextran; type: cell-based, human; details: Aβ 1 µM, within 24 h of incubation; ΔpH = pHfinal (t = 24 h) − pHinitial (control, t = 0 h); n = 12, N = 4
Experimental: Cells were cultured on coverslips and treated with Aβ variants (primary cortical neurons, DIV14–500 nM, 4 h; SH-SY5Y cells, D3–1 μM, 24 h) in presence of 50 µM LysoSensor-dextran probe (ThermoFisher Scientific, L7545) in cell culture media for the indicated time points. Cells were washed and stained as described before. For fluorescence analyses, cells were cultured and treated in a 96-well plate for the indicated time points, and washed thrice with PBS to remove the excess probe. Fluorescence intensity analysis of blue and green channel was done using a multiplate reader (Tecan Life Sciences, Switzerland). […] was computed from the fluorescence values measured at λEx 340 nm and λEm 450 nm (blue channel) and λEm 535 nm (green channel), respectively. Values were normalized to absorbance at 340 nm and protein content per well, and represented as change of LysoSensor acidification with respect to control cells (Figure 7B and S7C-D). pH values were computed by preparing a standard curve, wherein cells treated with 1 µM nigericin (Sigma Aldrich, N7143) and 1 µM monensin (Sigma Aldrich, M5273) were incubated with media of pH 4.5, 7.5 and 9.2. As independent controls, 100 nM bafilomycin A1 (Sigma Aldrich, 553210), 1 mM NH4Cl- and 10 µM rapamycin (Cayman Chemicals, 19438)-treated cells were also used as independent controls to validate the measurements. Change in LysoSensor pH (ΔpH) for Aβ treated cells was quantified using the formula ΔpH = pHfinal (control/Aβ, t = 24 h) − pHinitial (control, t = 0 h). Box plots (Figure 7C and S7E) depict the overall distribution of data, and each data point represents average values from an independent experiment; n = 12, N = 4.

primary cortical neurons [3] = assay: Immunocytochemistry of surface associated and internalized Aβ; type: cell-based, mouse; details: Aβ 500 nM, 4 h; antibody 82E1; ~200 neurons, N = 4

Substance | Mander's overlap coefficient, R, with EEA1-positive vesicles (primary cortical neurons [1]) | Mander's overlap coefficient, R, with CTSD (primary cortical neurons [1]) | Mander's overlap coefficient, R, with LAMP2 (primary cortical neurons [1]) | Mander's overlap coefficient, R, with LC3-positive vesicles (primary cortical neurons [1]) | Mander's overlap coefficient, R, with RAB7-positive late endosomes (primary cortical neurons [1]) | Intraneuronal accumulation of Aβ peptides by immunoprecipitation of total Aβ (rank order) (primary cortical neurons [2]) | Aβ levels in the lysosomal/late endosomal enriched fraction (16,000 g pellet) (primary cortical neurons [2]) | Aβ in LAMP2-immunoisolated lysosomes (primary cortical neurons [2]; western immunoblot 82E1) | Decrease in the pH (LysoSensor response, ΔpH) (SH-SY5Y cells) | Fluorescence intensities of Aβ signals in unpermeabilized and permeabilized cells (binding to neuronal membranes and intraneuronal accumulation) (primary cortical neurons [3]) | Aβ in LC3 immunoisolated vesicles (primary cortical neurons [2]; western immunoblot 82E1)
amyloid-β phosphorylated at serine residue 26 [p-Ser26Aβ] | 0.51 ± 0.14 | 0.65 ± 0.10 | 0.65 ± 0.13 | 0.52 ± 0.09 | 0.62 ± 0.15 | p-Ser8Aβ > p-Ser26Aβ > npAβ | high levels | strongly enriched | 0.17 ± 0.12 units | followed by p-Ser26Aβ | –
non-phosphorylated amyloid-β [npAβ, reference compound] | 0.43 ± 0.15 | 0.47 ± 0.09 | 0.45 ± 0.12 | 0.47 ± 0.09 | 0.44 ± 0.10 | p-Ser8Aβ > p-Ser26Aβ > npAβ | moderate levels | strongly enriched | 0.13 ± 0.11 units | least | –
amyloid-β phosphorylated at serine residue 8 [p-Ser8Aβ] | 0.58 ± 0.18 | 0.30 ± 0.06 | 0.33 ± 0.08 | 0.64 ± 0.21 | 0.33 ± 0.05 | p-Ser8Aβ > p-Ser26Aβ > npAβ | only marginal levels | – | did not show any change | highest fluorescence intensities | high levels
